This data set deals with human epithelial-derived cells (293T). As to the kind of experiment: CCK-8 test of killing ability to cells (Embodiment 14). It is filed as cell-based. As to the method: According to embodiments 1-3, water-soluble pigment solubilizing carrier dye was prepared, while cationic carrier ([…]) was used. First, human epithelial-derived cells (293T) were cultured, which was divided into three groups corresponding to a polyethyleneimine-co-isopropylacrylamide (water-soluble pigment solubilizing carrier) group, a polyethyleneimine-co-isopropylacrylamide (a water-soluble pigment solubilizing carrier) dye, and a commercially available cationic carrier group; the cells were cultured with commercially available cell culture medium ([…]) for 24 hours to obtain cells in the logarithmic growth phase; at this time, the same concentration gradient of polyethyleneimine-co-isopropylacrylamide (water-soluble pigment solubilizing carrier), polyethyleneimine-co-isopropylacrylamide (a water-soluble pigment solubilizing carrier)-pigment, and commercially available cationic carrier were added to the culture dishes of the three groups of cells; after 24 hours of culture, the CCK-8 test kit was used to examine the killing ability of the three groups of systems to the cells.

Experimental findings from patent US20190216712A1, “Hair dye composition, preparation method, and application method thereof” (SHANGHAI CLINICAL ENGINE TECHNOLOGY DEVELOPMENT CO., LTD., priority 2017, published 2019) are described below.

Like-named read-outs stand apart in the source and are kept apart here.

For “polyethyleneimine-co-isopropylacrylamide”, the damage of cells result is recorded as “hardly damaged”. Regarding `CCCCCCCCCCCCOS(=O)(=O)[O-].[Na+]` [commercially available cationic carrier, sodium lauryl sulfate], for the setting “293T cells, concentration gradient, 24 hours of culture”, the damage of cells entry is given as “cell death was rapid”.
